Experimental data: paper PMC3588188, “Interactions between Human Liver Fatty Acid Binding Protein and Peroxisome Proliferator Activated Receptor Selective Drugs” (PPAR Research, 2013)
Read-outs that look alike come from different tables or passages of the source.

Tests used:
human L-FABP [1] = biological target: T1, human L-FABP (Homo sapiens, UniProt P07148); assay: Fluorescent binding cavity probe binding to L-FABP
T1 sequence (P07148 1-127): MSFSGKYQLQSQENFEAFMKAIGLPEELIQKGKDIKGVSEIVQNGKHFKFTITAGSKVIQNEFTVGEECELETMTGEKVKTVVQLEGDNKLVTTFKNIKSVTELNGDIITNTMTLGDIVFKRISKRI

[2] = biological target: T2, human PPARδ LBD (aa 171–441) (Homo sapiens, UniProt Q03181); assay: cis-parinaric acid fluorescence displacement assay with PPARδ LBD; conditions: cis-parinaric acid (2 μM) displacement, LBD 1 μM; nd = no binding detected; read-out: Ki, PPARδLBD
T2 construct: human PPARδ (aa 171–441); [His]6 (N); made in house; host or cells: E. coli BL21 Codon Plus (DE3)-RIL (plasmid from William Hunter, University of Dundee)
T2 sequence (Q03181 171-441): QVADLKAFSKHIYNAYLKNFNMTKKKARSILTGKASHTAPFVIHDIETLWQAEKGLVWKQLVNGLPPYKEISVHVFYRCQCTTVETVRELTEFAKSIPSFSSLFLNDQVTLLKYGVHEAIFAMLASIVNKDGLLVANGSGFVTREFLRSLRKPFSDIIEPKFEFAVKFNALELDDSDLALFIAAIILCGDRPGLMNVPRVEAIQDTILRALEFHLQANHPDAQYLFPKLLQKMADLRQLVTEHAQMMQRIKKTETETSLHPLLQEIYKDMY
Procedure: (§1) Proteins were resolved using a step gradient of 0–300 mM imidazole in buffer A (50 mM Tris-HCl, pH 8.0; 500 mM NaCl; 0.5 mM ethylenediaminetetraacetic acid (EDTA); 1 mM dithiothreitol (DTT); 5% (v/v) glycerol) at a flow rate of 5 mL/min (4 column volumes (CVs) washout unbound sample; 0%–30% imidazole over 5 CVs; hold 30% for 2 CVs; 30%–100% imidazole over 5 CVs; hold 100% for 3 CVs).

human L-FABP [3] = biological target: T1, human L-FABP; assay: ANS fluorescence displacement assay with L-FABP
[4] = biological target: T3, human PPARα LBD (aa 196–468) (Homo sapiens, UniProt Q07869); assay: cis-parinaric acid fluorescence displacement assay with PPARα LBD; conditions: cis-parinaric acid (2 μM) displacement, LBD 1 μM; nd = no binding detected; read-out: Ki, PPARαLBD
T3 construct: LBD of human PPARα (aa 196–468); [His]6 (N); made in house; host or cells: E. coli BL21 Codon Plus (DE3)-RIL (plasmid from Krister Bamberg, Astra-Zeneca)
T3 sequence (Q07869 196-468): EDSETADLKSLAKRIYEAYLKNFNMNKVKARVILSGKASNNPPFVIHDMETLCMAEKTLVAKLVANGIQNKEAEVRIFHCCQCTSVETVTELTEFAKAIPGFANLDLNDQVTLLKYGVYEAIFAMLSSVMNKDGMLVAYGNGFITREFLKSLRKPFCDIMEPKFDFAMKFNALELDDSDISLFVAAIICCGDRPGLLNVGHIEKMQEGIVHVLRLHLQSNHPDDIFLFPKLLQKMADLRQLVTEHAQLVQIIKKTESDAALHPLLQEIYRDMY
Procedure: as §1

human L-FABP [5] = biological target: T1, human L-FABP; assay: Limited proteolysis of L-FABP with trypsin; design: [His]6 (N); made in house; host or cells: E. coli BL21 Codon Plus (DE3)-RIL; conditions: drug 0-5 μM, L-FABP 50 μM, 1 hr at 20°C
Procedure: The limited proteolysis of L-FABP (50 μM) with sequencing grade trypsin was carried out in buffer D (20 mM Tris-HCl, pH 8.0; 50 mM NaCl; […]. Apo- or holo-drug (0, 0.1, 0.4, 1.0, 5 μM final drug concentration) protein samples were equilibrated with the drug at 20°C for 15 min before protease was added. Digestion reactions were stopped by the addition of 5 μL of 50 mM phenylmethanesulfonyl fluoride (PMSF) followed by one volume of SDS-PAGE sample buffer (12.5% 0.5 M Tris-HCl pH 6.8; 0.005% bromophenol blue; 10% SDS; 10% glycerol; 2% β-mercaptoethanol) and heated for 2 min at 100°C. Samples were resolved on 4% stacking, 20% resolving polyacrylamide gels at 4°C at a constant voltage of 80 V, using the Laemmli buffer system. Gels were stained with Coomassie Blue G-250 and destained with 50% methanol/10% acetic acid (v/v) solution. Gels were dried between cellulose sheets and scanned at 1200 dpi. Protein bands were quantified densitometrically using LabImage 1D gel analysis software V3.4 (Kapelan GmbH, http://www.kapelan-bioimaging.com/).

PPARαLBD = biological target: T4, PPARαLBD (Homo sapiens, UniProt Q07869); assay: PPARαLBD protection from limited proteolysis (western blot); conditions: PPARαLBD 30 μM, drug 0, 1, 5 μM, trypsin 30 min at 20°C
T4 construct: LBD of human PPARα (aa 196–468); [His]6 (N); made in house; host or cells: E. coli BL21 Codon Plus (DE3)-RIL (plasmid from Krister Bamberg, Astra-Zeneca)
T4 sequence (Q07869 196-468): T3 sequence (Q07869 196-468)
From the text: […] […] The reaction was quenched by the addition of PMSF and one volume of SDS-PAGE sample buffer as detailed above. Samples were resolved by 15% resolving SDS-PAGE polyacrylamide gels then transferred to a PVDF membrane and probed with anti-human PPARα antibody (mapping to C-terminal aa 420–468 of the PPARαLBD; cat. no. sc1982 Santa-Cruz Biotechnology, Santa Cruz, CA, USA) by western blotting.

human L-FABP [6] = biological target: T1, human L-FABP; assay: cis-parinaric acid fluorescence displacement assay with L-FABP; conditions: for displacement of cis-parinaric acid fluorescence from L-FABP: extent of probe displacement by drug titration
human L-FABP [7] = biological target: T1, human L-FABP; assay: Differential scanning calorimetry of L-FABP; design: [His]6 (N); made in house; host or cells: E. coli BL21 Codon Plus (DE3)-RIL; conditions: holo-drug L-FABP; apo L-FABP Tm = 80.1; scan rate 0.5°C/min
Procedure: DSC measurements were performed on N-DSC II calorimeter (Calorimetry Sciences Corporation, UT, USA) at a heating rate of 0.5°C/min. For preparation of 250 μM protein sample solutions, L-FABP was extensively buffer exchanged into buffer E (20 mM Tris-HCl pH 8.0) by ultrafiltration using Amicon Ultra 3 K centrifugal concentrators and degassed prior to filling the calorimeter cells. The filtrate from the sample preparation was used as a reference buffer for the DSC measurements. The thermal transition mid-point temperatures (T m) were calculated using CpCalc software (Calorimetry Sciences Corporation, UT, USA).

[8] = biological target: T5, human PPARγ LBD (aa 193–475) (Homo sapiens, UniProt P37231); assay: cis-parinaric acid fluorescence displacement assay with PPARγ LBD; type: binding
T5 construct: human PPARγ (aa 193–475); [His]6 (N); made in house; host or cells: E. coli BL21 Codon Plus (DE3)-RIL (plasmid from Krister Bamberg, Astra-Zeneca)
T5 sequence (P37231 193-475 isoform P37231-2): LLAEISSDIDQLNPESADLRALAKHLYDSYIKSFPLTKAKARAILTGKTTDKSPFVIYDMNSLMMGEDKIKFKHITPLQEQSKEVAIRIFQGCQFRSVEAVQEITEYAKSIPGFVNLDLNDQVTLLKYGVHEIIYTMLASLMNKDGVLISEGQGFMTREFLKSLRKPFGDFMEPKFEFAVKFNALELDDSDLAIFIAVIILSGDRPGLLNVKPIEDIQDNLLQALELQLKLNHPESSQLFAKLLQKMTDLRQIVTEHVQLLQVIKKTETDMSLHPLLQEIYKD
Procedure: as §1

[9] = cis-parinaric acid (2 μM) displacement, LBD 1 μM, nd = no binding detected, read-out: Ki, PPARγLBD

Row | SMILES | Ki [2] | Ki (human L-FABP [3]) | Ki [4] | also measured
1 | O=S(=O)(O)c1cccc2cccc(Nc3ccccc3)c12 |  |  |  | Kd (human L-FABP [1]): 6000 ± 2600 nM
2 | CC(C)(Oc1ccc(C(=O)c2ccc(Cl)cc2)cc1)C(=O)O [Fenofibric acid] | 49000 ± 4000 nM | 1000 ± 200 nM | 10000 ± 3000 nM | 
3 | CN(CCOc1ccc(C[C@H](Nc2ccccc2C(=O)c2ccccc2)C(=O)O)cc1)c1ccccn1 [GW1929] |  | 1600 ± 700 nM |  | 
4 | CC(C)(Sc1ccc(CCN(CCCCC2CCCCC2)C(=O)NC2CCCCC2)cc1)C(=O)O [GW7647] |  | 320 ± 130 nM |  | protection of L-FABP from limited proteolysis (human L-FABP [5]): afforded more resistance to proteolysis; protection of PPARαLBD from limited proteolysis (PPARαLBD): afforded protection to the PPARαLBD against proteolysis; Ki (human L-FABP [6]): 550 nM; displacement of cis-parinaric acid fluorescence from L-FABP (human L-FABP [6]): could not completely displace the cis-parinaric acid fluorescence; thermal transition mid-point temperature (Tm) of L-FABP in complex with drug (human L-FABP [7]): 86.7 °C
5 | Cc1nc(-c2ccc(C(F)(F)F)cc2)sc1C(=O)NCc1ccc(OC(C)(C)C(=O)O)cc1 [GW590735] | 23000 ± 4000 nM | 20000 ± 3800 nM |  | Ki [8, 9]: 4400 ± 2300 nM
6 | CCCc1c(OCCCOc2ccc(OCC(=O)O)cc2)ccc(C(C)=O)c1O [L-165,041] | 800 ± 300 nM | 1400 ± 600 nM | 4200 ± 400 nM | protection of L-FABP from limited proteolysis (human L-FABP [5]): protects L-FABP from limited proteolysis; Ki (human L-FABP [6]): 2300 nM; displacement of cis-parinaric acid fluorescence from L-FABP (human L-FABP [6]): could not completely displace the cis-parinaric acid fluorescence; Ki [8, 9]: 12000 ± 2100 nM
7 | CCCCCCCC/C=C\CCCCCCCC(=O)O [Oleate] | 1100 ± 260 nM |  | 210 ± 80 nM | Ki [8]: 600 ± 15 nM
8 | CN(CCOc1ccc(CC2SC(=O)NC2=O)cc1)c1ccccn1 (centres unmarked) [Rosiglitazone] |  | 2800 ± 1100 nM |  | 
9 | Cc1c(C)c2c(c(C)c1O)CCC(C)(COc1ccc(CC3SC(=O)NC3=O)cc1)O2 (centres unmarked) [Troglitazone] |  | 1700 ± 500 nM |  | 
